Test results as given in patent US6495571B1, “Pyridine compounds, use and preparation thereof” (Southern Research Institute, priority 1999, dated 2002).
Read-outs that look alike come from different tables or passages of the source.

Experiments:
HT29 human colon tumor = assay: In vivo antitumor activity, sc HT29 xenograft; design: species or system Athymic mice (Ncr-nu)
[1] = test system: human MX-1 mammary tumor (sc, 30-40 mg fragments); assay: In vivo antitumor activity, s.c.-implanted MX-1 xenograft; design: species or system Athymic mice (Ncr-nu)
SK-MEL-28 melanoma = assay: In vivo antitumor activity, sc SK-MEL-28 xenograft; design: species or system Athymic mice (Ncr-nu); conditions: IP 90 mg/kg/dose, Days 8-12
[2] = test system: P388/CPA (cyclophosphamide-resistant) leukemia; format: in vivo, CD2F1 female mice; conditions: for 50-DAY SURV./TOTAL / % ILS / APPROX. NET LOG10 CHANGE IN TUMOR BURDEN AT END OF Rx: Q1D × 5 (1)
MCF7 human mammary tumor = assay: In vivo antitumor activity, sc MCF7 xenograft; design: species or system Athymic mice (Ncr-nu)
OVCAR-5 ovarian tumor = assay: In vivo antitumor activity, sc OVCAR-5 xenograft; design: species or system Athymic mice (Ncr-nu); conditions: IP 90 mg/kg/dose, Days 12-16
SF-295 CNS tumor = assay: In vivo antitumor activity, sc SF-295 xenograft; design: species or system Athymic mice (Ncr-nu); conditions: IP 90 mg/kg/dose, Days 9-13
[3] = test system: ZR-75-1 human mammary tumor; assay: In vivo antitumor activity, sc ZR-75-1 xenograft; design: species or system Athymic mice (Ncr-nu)
[4] = test system: P388/L-PAM (melphalan-resistant) leukemia
[5] = test system: UISO-BCA-1 human mammary tumor; assay: In vivo antitumor activity, sc UISO-BCA-1 xenograft; design: species or system Athymic mice (Ncr-nu); conditions: IP 90 mg/kg/dose, Days 16-20
U251 human CNS tumor = assay: In vivo antitumor activity, sc U251 xenograft; design: species or system Athymic mice (Ncr-nu)
[6] = test system: NCI-H82 small cell lung tumor; assay: In vivo antitumor activity, sc NCI-H82 xenograft; design: species or system Athymic mice (Ncr-nu)
[7] = test system: NCI-H460 nonsmall cell lung tumor; assay: In vivo antitumor activity, sc NCI-H460 xenograft; design: species or system Athymic mice (Ncr-nu); conditions: IP 90 mg/kg/dose, Days 6-10
[8] = test system: P388/BCNU (carmustine-resistant) leukemia; assay: Antitumor activity against IP-implanted P388/BCNU leukemia
CAKI-1 human renal tumor = assay: In vivo antitumor activity, sc CAKI-1 xenograft; design: species or system Athymic mice (Ncr-nu)
[9] = test system: human MX-1 mammary tumor (ic, 10^6 cells); assay: In vivo antitumor activity, i.c.-implanted MX-1 xenograft; conditions: Days 1-5
[10] = oral (gavage) 135 mg/kg/dose, Days 13-17
[11] = highest nontoxic doses evaluated, versus DM-PEN
[12] = highest nontoxic doses evaluated, versus PEN
[13] = IP 60.0 mg/kg/dose, Q1D × 5 (1)
[14] = IP 90.0 mg/kg/dose, Q1D × 5 (1)
[15] = IP 135.0 mg/kg/dose, Q1D × 5 (1)

With `COc1nc(C(Cl)(Cl)Cl)c(Cl)c(OC(C)=O)c1Cl` [DM-A-PEN] the T-C (HT29 human colon tumor; IP 90 mg/kg/dose, Days 14-18) was 5.8 days, the Tumor-Free-Surv/Total (HT29 human colon tumor; IP 90 mg/kg/dose, Days 14-18) was 0/5 and the “activity (in words)” value (HT29 human colon tumor; s.c.-implanted) was “moderate to modest activity”. The T-C ([1]; IP 60 mg/kg/dose, Days 14-18) was >38.3 days, the Tumor-Free-Surv/Total ([1]; IP 60 mg/kg/dose, Days 14-18) was 4/5 and the T-C ([1]; IP 60 mg/kg/dose, Days 15-19) was >37.2 days. For the same compound, the Tumor-Free-Surv/Total ([1]; IP 60 mg/kg/dose, Days 15-19) was 3/5, the T-C ([1]; IP 90 mg/kg/dose, Days 12-16) was >41.0 days and the Tumor-Free-Surv/Total ([1]; IP 90 mg/kg/dose, Days 12-16) was 5/5. The “IP dosage marked (LD50)” value ([1]; IP, Days 15-19, sc MX-1 bearing mice) was 60 (LD50) mg/kg/dose, the T-C [1, 10] was >38.5 days and the Tumor-Free-Surv/Total [1, 10] was 5/5. The T-C (SK-MEL-28 melanoma) was 0.7 days, the Tumor-Free-Surv/Total (SK-MEL-28 melanoma) was 0/5 and the “50-DAY SURV./TOTAL” value ([2]; IP 60.0 mg/kg/dose) was 0/6. For the same compound, the “% ILS” value ([2]; IP 60.0 mg/kg/dose) was “+54%”, the “APPROX. NET LOG10 CHANGE IN TUMOR BURDEN AT END OF Rx” value ([2]; IP 60.0 mg/kg/dose) was −1.1 and the “50-DAY SURV./TOTAL” value ([2]; IP 90.0 mg/kg/dose) was 0/6. The “% ILS” value ([2]; IP 90.0 mg/kg/dose) was “+86%”, the “APPROX. NET LOG10 CHANGE IN TUMOR BURDEN AT END OF Rx” value ([2]; IP 90.0 mg/kg/dose) was −3.1 and the “50-DAY SURV./TOTAL” value ([2]; IP 135.0 mg/kg/dose) was 0/6. The “APPROX. NET LOG10 CHANGE IN TUMOR BURDEN AT END OF Rx” value ([2]; IP 135.0 mg/kg/dose) was −5.7, the “more active than DM-PEN by log cell kill” value [2, 11] was 4.6 log cell kill and the “more active than PEN by log cell kill” value [2, 12] was 7.4 log cell kill. For the same compound, the T-C (MCF7 human mammary tumor; IP 60 mg/kg/dose, Days 14-18) was 7.1 days, the Tumor-Free-Surv/Total (MCF7 human mammary tumor; IP 60 mg/kg/dose, Days 14-18) was 0/5 and the “activity (in words)” value (MCF7 human mammary tumor; s.c.-implanted) was “moderate to modest activity”. The T-C (OVCAR-5 ovarian tumor) was 4.0 days, the Tumor-Free-Surv/Total (OVCAR-5 ovarian tumor) was 0/5 and the T-C (SF-295 CNS tumor) was 0.7 days. For the same compound, the Tumor-Free-Surv/Total (SF-295 CNS tumor) was 0/5, the Tumor-Free-Surv/Total ([3]; IP 60 mg/kg/dose, Days 10-14) was 0/5 and the Tumor-Free-Surv/Total ([3]; IP 90 mg/kg/dose, Days 8-12) was 0/5. The “activity (in words)” value ([3]; s.c.-implanted) was “moderate to modest activity”, the “50-DAY SURV./TOTAL” value [4, 13] was 0/6 and the “% ILS” value [4, 13] was “+14%”. The “APPROX. NET LOG10 CHANGE IN TUMOR BURDEN AT END OF Rx” value [4, 13] was “+1.2”, the “50-DAY SURV./TOTAL” value [4, 14] was 0/6 and the “% ILS” value [4, 14] was “+14%”. For the same compound, the “APPROX. NET LOG10 CHANGE IN TUMOR BURDEN AT END OF Rx” value [4, 14] was “+1.2”, the “50-DAY SURV./TOTAL” value [4, 15] was 0/6 and the “% ILS” value [4, 15] was “+35%”. For the same compound, the “APPROX. NET LOG10 CHANGE IN TUMOR BURDEN AT END OF Rx” value [4, 15] was −0.8, the “Lethality of the dosage (LD mark beside % ILS)” value [4, 15] was “LD17” and the “MEDIAN DAY OF DEATH” value [4, 15] was 19.8. For the same compound, the “more active than PEN or DM-PEN by log cell kill” value ([4]; highest nontoxic doses evaluated, versus PEN or DM-PEN) was 0.2-0.3 log cell kill, the “activity in this tumor model (in words)” value ([4]; mouse, in vivo) was “none of the three showed significant activity” and the T-C [5] was -2.4 days. For the same compound, the Tumor-Free-Surv/Total [5] was 0/5, the Tumor-Free-Surv/Total (U251 human CNS tumor; IP 90 mg/kg/dose, Days 19-23) was 0/5 and the “activity (in words)” value (U251 human CNS tumor; s.c.-implanted) was “moderate to modest activity”. For the same compound, the T-C ([6]; IP 60 mg/kg/dose, Days 13-17) was 7.2 days, the Tumor-Free-Surv/Total ([6]; IP 60 mg/kg/dose, Days 13-17) was 0/5 and the “activity (in words)” value ([6]; s.c.-implanted) was “moderate to modest activity”. For the same compound, the T-C [7] was -0.6 days, the Tumor-Free-Surv/Total [7] was 0/5 and the “50-DAY SURV./TOTAL” value [8, 13] was 1/6. The “% ILS” value [8, 13] was “+44%”, the “APPROX. NET LOG10 CHANGE IN TUMOR BURDEN AT END OF Rx” value [8, 13] was 0 and the “MEDIAN DAY OF DEATH” value [8, 13] was 13.0. For the same compound, the “50-DAY SURV./TOTAL” value [8, 14] was 0/6, the “% ILS” value [8, 14] was “+77%” and the “APPROX. NET LOG10 CHANGE IN TUMOR BURDEN AT END OF Rx” value [8, 14] was −2.3. For the same compound, the “50-DAY SURV./TOTAL” value [8, 15] was 0/6, the “APPROX. NET LOG10 CHANGE IN TUMOR BURDEN AT END OF Rx” value [8, 15] was −4.1 and the “Lethality of the dosage (LD mark beside % ILS)” value [8, 15] was “LD17”. For the same compound, the “more active than DM-PEN by log cell kill” value [8, 11] was 1.5 log cell kill, the “more active than PEN by log cell kill” value [8, 12] was 3.5 log cell kill and the T-C (CAKI-1 human renal tumor; IP 90 mg/kg/dose, Days 19-23) was 8.4 days. For the same compound, the Tumor-Free-Surv/Total (CAKI-1 human renal tumor; IP 90 mg/kg/dose, Days 19-23) was 0/5, the “activity (in words)” value (CAKI-1 human renal tumor; s.c.-implanted) was “moderate to modest activity” and the “Median % ILS (dying mice only)” value ([9]; IP 60 mg/kg/dose) was “+60%”. For the same compound, the “Median % ILS (dying mice only)” value ([9]; oral (gavage) 135 mg/kg/dose) was “+88%”, the “50-DAY SURV./TOTAL” value (P388/0 murine leukemia; [13]) was 0/6 and the “% ILS” value (P388/0 murine leukemia; [13]) was “+72%”. For the same compound, the “APPROX. NET LOG10 CHANGE IN TUMOR BURDEN AT END OF Rx” value (P388/0 murine leukemia; [13]) was −3.1, the “50-DAY SURV./TOTAL” value (P388/0 murine leukemia; [14]) was 0/6 and the “% ILS” value (P388/0 murine leukemia; [14]) was “+95%”. For the same compound, the “APPROX. NET LOG10 CHANGE IN TUMOR BURDEN AT END OF Rx” value (P388/0 murine leukemia; [14]) was −5.0, the “50-DAY SURV./TOTAL” value (P388/0 murine leukemia; [15]) was 0/6 and the “% ILS” value (P388/0 murine leukemia; [15]) was “+150%”. For the same compound, the “APPROX. NET LOG10 CHANGE IN TUMOR BURDEN AT END OF Rx” value (P388/0 murine leukemia; [15]) was “ca −6.8”, the “Lethality of the dosage (LD mark beside % ILS)” value (P388/0 murine leukemia; [15]) was “LD33” and the “more active than DM-PEN by log cell kill” value (P388/0 murine leukemia; [11]) was 1.9 log cell kill. For the same compound, the “more active than PEN by log cell kill” value (P388/0 murine leukemia; [12]) was 0.4 log cell kill.
